Source: PubChem BioAssay (NCI)
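Grown in 96-well plates, cells were treated for 48 hours with each compound at five concentrations. Insufficient inhibition: endpoint recorded as highest concentration tested. GI50 marks 50% less growth. TGI: concentration producing complete growth inhibition.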

Columns and labels:
Experiment in all cases: NCI anticancer screen, dose series, 48 h
NCI-H23 lung = system: NCI-H23 lung
TK-10 renal = system: TK-10 renal
CAKI-1 renal = system: CAKI-1 renal
MALME-3M melanoma = system: MALME-3M melanoma
SK-OV-3 ovarian = system: SK-OV-3 ovarian
MOLT-4 leukemia = system: MOLT-4 leukemia
SNB-19 CNS = system: SNB-19 CNS
BT-549 breast = system: BT-549 breast
DU-145 prostate = system: DU-145 prostate
KM12 colon = system: KM12 colon
PC-3 prostate = system: PC-3 prostate
A498 renal = system: A498 renal
M14 melanoma = system: M14 melanoma
IGROV1 ovarian = system: IGROV1 ovarian
HT29 colon = system: HT29 colon
SR leukemia = system: SR leukemia
NCI-H460 lung = system: NCI-H460 lung
786-0 renal = system: 786-0 renal
COLO 205 colon = system: COLO 205 colon
RXF 393 renal = system: RXF 393 renal
SW-620 colon = system: SW-620 colon
RPMI-8226 leukemia = system: RPMI-8226 leukemia
HOP-92 NSCLC = system: HOP-92 NSCLC
HS 578T breast = system: HS 578T breast
SN12C renal = system: SN12C renal
HCT-116 colon = system: HCT-116 colon
UO-31 renal = system: UO-31 renal
OVCAR-8 ovarian = system: OVCAR-8 ovarian
SF-539 CNS = system: SF-539 CNS
MDA-MB-435 = system: MDA-MB-435
SK-MEL-2 melanoma = system: SK-MEL-2 melanoma
LOX IMVI melanoma = system: LOX IMVI melanoma
MDA-MB-231 breast = system: MDA-MB-231 breast
NCI-H522 lung = system: NCI-H522 lung
A549 NSCLC = system: A549 NSCLC
SF-295 CNS = system: SF-295 CNS
EKVX NSCLC = system: EKVX NSCLC
ACHN renal = system: ACHN renal
MCF7 breast = system: MCF7 breast
HL-60(TB) leukemia = system: HL-60(TB) leukemia
SK-MEL-5 melanoma = system: SK-MEL-5 melanoma
HCT-15 colon = system: HCT-15 colon
SF-268 CNS = system: SF-268 CNS
UACC-257 melanoma = system: UACC-257 melanoma
OVCAR-4 ovarian = system: OVCAR-4 ovarian
NCI-H226 lung = system: NCI-H226 lung
HOP-62 NSCLC = system: HOP-62 NSCLC
OVCAR-3 ovarian = system: OVCAR-3 ovarian
HCC-2998 colon = system: HCC-2998 colon
K-562 leukemia = system: K-562 leukemia
SK-MEL-28 melanoma = system: SK-MEL-28 melanoma
OVCAR-5 ovarian = system: OVCAR-5 ovarian
T-47D breast = system: T-47D breast
U251 CNS = system: U251 CNS
UACC-62 melanoma = system: UACC-62 melanoma
NCI/ADR-RES ovarian = system: NCI/ADR-RES ovarian
SNB-75 CNS = system: SNB-75 CNS

## NC(=O)C1c2ccccc2C=Cc2ccccc21
NCI-H23 lung
  GI50: > 100 µM
  TGI: > 100 µM
TK-10 renal
  GI50: > 100 µM
  TGI: > 100 µM
CAKI-1 renal
  GI50: > 100 µM
  TGI: > 100 µM
MALME-3M melanoma
  GI50: > 100 µM
  TGI: > 100 µM
SK-OV-3 ovarian
  GI50: > 100 µM
  TGI: > 100 µM
MOLT-4 leukemia
  GI50: > 100 µM
  TGI: > 100 µM
SNB-19 CNS
  GI50: > 100 µM
  TGI: > 100 µM
BT-549 breast
  GI50: > 100 µM
  TGI: > 100 µM
DU-145 prostate
  GI50: > 100 µM
  TGI: > 100 µM
KM12 colon
  GI50: > 100 µM
  TGI: > 100 µM
PC-3 prostate
  GI50: > 100 µM
  TGI: > 100 µM
A498 renal
  GI50: > 100 µM
  TGI: > 100 µM
M14 melanoma
  GI50: > 100 µM
  TGI: > 100 µM
IGROV1 ovarian
  GI50: > 100 µM
  TGI: > 100 µM
HT29 colon
  GI50: > 100 µM
  TGI: > 100 µM
SR leukemia
  GI50: > 100 µM
  TGI: > 100 µM
NCI-H460 lung
  GI50: > 100 µM
  TGI: > 100 µM
786-0 renal
  GI50: > 100 µM
  TGI: > 100 µM
COLO 205 colon
  GI50: > 100 µM
  TGI: > 100 µM
RXF 393 renal
  GI50: > 100 µM
  TGI: > 100 µM
SW-620 colon
  GI50: > 100 µM
  TGI: > 100 µM
RPMI-8226 leukemia
  GI50: > 100 µM
  TGI: > 100 µM
HOP-92 NSCLC
  GI50: 51.6 µM
  TGI: > 100 µM
HS 578T breast
  GI50: > 100 µM
  TGI: > 100 µM
SN12C renal
  GI50: > 100 µM
  TGI: > 100 µM
HCT-116 colon
  GI50: > 100 µM
  TGI: > 100 µM
UO-31 renal
  GI50: > 100 µM
  TGI: > 100 µM
OVCAR-8 ovarian
  GI50: > 100 µM
  TGI: > 100 µM
SF-539 CNS
  GI50: > 100 µM
  TGI: > 100 µM
MDA-MB-435
  GI50: 73.3 µM
  TGI: > 100 µM
SK-MEL-2 melanoma
  GI50: > 100 µM
  TGI: > 100 µM
LOX IMVI melanoma
  GI50: > 100 µM
  TGI: > 100 µM
MDA-MB-231 breast
  GI50: > 100 µM
  TGI: > 100 µM
NCI-H522 lung
  GI50: > 100 µM
  TGI: > 100 µM
A549 NSCLC
  GI50: > 100 µM
  TGI: > 100 µM
SF-295 CNS
  GI50: > 100 µM
  TGI: > 100 µM
EKVX NSCLC
  GI50: > 100 µM
  TGI: > 100 µM
ACHN renal
  GI50: > 100 µM
  TGI: > 100 µM
MCF7 breast
  GI50: > 100 µM
  TGI: > 100 µM
HL-60(TB) leukemia
  GI50: > 100 µM
  TGI: > 100 µM
SK-MEL-5 melanoma
  GI50: > 100 µM
  TGI: > 100 µM
HCT-15 colon
  GI50: > 100 µM
  TGI: > 100 µM
SF-268 CNS
  GI50: > 100 µM
  TGI: > 100 µM
UACC-257 melanoma
  GI50: > 100 µM
  TGI: > 100 µM
OVCAR-4 ovarian
  GI50: > 100 µM
  TGI: > 100 µM
NCI-H226 lung
  GI50: > 100 µM
  TGI: > 100 µM
HOP-62 NSCLC
  GI50: > 100 µM
  TGI: > 100 µM
OVCAR-3 ovarian
  GI50: > 100 µM
  TGI: > 100 µM
HCC-2998 colon
  GI50: > 100 µM
  TGI: > 100 µM
K-562 leukemia
  GI50: > 100 µM
  TGI: > 100 µM
SK-MEL-28 melanoma
  GI50: > 100 µM
  TGI: > 100 µM
OVCAR-5 ovarian
  GI50: > 100 µM
  TGI: > 100 µM
T-47D breast
  GI50: > 100 µM
  TGI: > 100 µM
U251 CNS
  GI50: > 100 µM
  TGI: > 100 µM
UACC-62 melanoma
  GI50: > 100 µM
  TGI: > 100 µM
NCI/ADR-RES ovarian
  GI50: > 100 µM
  TGI: > 100 µM
SNB-75 CNS
  GI50: > 100 µM
  TGI: > 100 µM
